Key:
[1] = GIT-PAMPA in vitro permeability assay; format: in vitro ADME
Procedure: GIT-PAMPA was performed according to the manufacturer’s instructions (Pion Inc., Billerica, MA, USA). Briefly, the test compound was diluted in donor buffer (pH 7.4) to obtain a concentration of 50 μM. Then, 200 μL of this solution was added to the lower part of a 96-well PAMPA sandwich plate. The transmembrane side of the donor part was coated with a GIT-0 lipid solution, and 200 μL of the acceptor buffer was added to the upper part of the PAMPA sandwich plate. After incubating for 4 h at 25 °C, each sample was transferred to a fresh UV plate, after which the UV spectra were measured at wavelengths of 250–498 nm, and the permeability rate (Pe, 10^−6 cm/sec) was analyzed using the Pion PAMPA Explorer software (version 3.8, Pion Inc., Billerica, MA, USA).

JAK3 = target: T1, JAK3 (Homo sapiens, UniProt P52333); assay: HotSpot kinase enzymatic assay, JAK3; format: biochemical
T1 construct: purchased Reaction Biology Corporation
T1 sequence (P52333 1-1124): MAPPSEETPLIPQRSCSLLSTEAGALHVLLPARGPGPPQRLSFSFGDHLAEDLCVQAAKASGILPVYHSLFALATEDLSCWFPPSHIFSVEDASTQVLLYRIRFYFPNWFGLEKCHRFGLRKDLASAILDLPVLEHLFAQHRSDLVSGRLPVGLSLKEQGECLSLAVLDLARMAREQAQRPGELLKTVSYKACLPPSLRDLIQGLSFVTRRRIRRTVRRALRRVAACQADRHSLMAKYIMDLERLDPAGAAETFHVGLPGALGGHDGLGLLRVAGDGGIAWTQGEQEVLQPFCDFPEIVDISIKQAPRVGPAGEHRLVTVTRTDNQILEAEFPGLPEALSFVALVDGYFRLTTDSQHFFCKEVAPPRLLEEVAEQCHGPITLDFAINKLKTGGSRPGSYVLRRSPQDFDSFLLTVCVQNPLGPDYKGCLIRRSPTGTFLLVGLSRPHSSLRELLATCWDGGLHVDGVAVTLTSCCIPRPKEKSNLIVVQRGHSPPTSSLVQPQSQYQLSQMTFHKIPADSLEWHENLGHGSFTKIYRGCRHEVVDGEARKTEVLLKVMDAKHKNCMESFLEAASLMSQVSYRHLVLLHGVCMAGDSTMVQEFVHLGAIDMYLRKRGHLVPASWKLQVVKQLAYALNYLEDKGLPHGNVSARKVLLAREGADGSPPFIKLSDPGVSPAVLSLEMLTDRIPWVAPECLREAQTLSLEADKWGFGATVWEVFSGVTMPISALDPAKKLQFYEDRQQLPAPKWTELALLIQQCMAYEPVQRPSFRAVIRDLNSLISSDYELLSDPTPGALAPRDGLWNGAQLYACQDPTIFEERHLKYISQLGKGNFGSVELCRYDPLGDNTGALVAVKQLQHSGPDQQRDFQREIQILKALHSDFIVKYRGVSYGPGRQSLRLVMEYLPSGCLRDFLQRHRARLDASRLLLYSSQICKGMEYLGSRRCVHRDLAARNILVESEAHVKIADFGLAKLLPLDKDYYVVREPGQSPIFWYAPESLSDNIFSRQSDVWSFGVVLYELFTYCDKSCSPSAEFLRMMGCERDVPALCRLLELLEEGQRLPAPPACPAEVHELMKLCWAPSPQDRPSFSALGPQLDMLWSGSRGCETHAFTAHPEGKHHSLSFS
Procedure: (§1) Therefore, efforts have focused on developing new compounds with good selectivity profiles. […] Compound 8 was selective against BTK. The biochemical activities of compound 8 differed among TEC family kinases. […] The inhibitory potential of compound 8 differed between members of the EGFR family. […] The inhibitory activity of compound 8 against JAK3 was also low.
(§2) Kinase enzymatic assays for BTK, BMX, TXK, TEC, ITK, EGFR, ERBB2, ERBB4, and JAK3 were performed at Reaction Biology Corporation (www.reactionbiology.com, Malvern, PA, USA) using the HotSpot assay platform. Briefly, specific kinase/substrate pairs and the required cofactors were prepared in a reaction buffer comprising 20 mM HEPES (pH 7.5), 10 mM MgCl2, 1 mM EGTA, 0.02% Brij35, 0.02 mg/mL BSA, 0.1 mM Na3VO4, 2 mM DTT, and 1% DMSO. The compounds were added to the reaction mixture and allowed to incubate. Approximately 20 min later, a mixture of ATP (Sigma-Aldrich, St. Louis, MO, USA) and ^33P ATP (PerkinElmer, Waltham, MA, USA) was added to the reaction mixture at a final concentration of 10 μM. The reactions were performed at room temperature for 120 min; subsequently, the reactions were spotted onto P81 ion exchange filter papers (Whatman Inc., Maidstone, UK). Any unbound phosphate was removed by thoroughly washing the filter papers with 0.75% phosphoric acid. […]

ITK = target: T2, ITK (Homo sapiens, UniProt Q08881); assay: HotSpot kinase enzymatic assay, ITK; format: biochemical
T2 construct: purchased Reaction Biology Corporation
T2 sequence (Q08881 1-620): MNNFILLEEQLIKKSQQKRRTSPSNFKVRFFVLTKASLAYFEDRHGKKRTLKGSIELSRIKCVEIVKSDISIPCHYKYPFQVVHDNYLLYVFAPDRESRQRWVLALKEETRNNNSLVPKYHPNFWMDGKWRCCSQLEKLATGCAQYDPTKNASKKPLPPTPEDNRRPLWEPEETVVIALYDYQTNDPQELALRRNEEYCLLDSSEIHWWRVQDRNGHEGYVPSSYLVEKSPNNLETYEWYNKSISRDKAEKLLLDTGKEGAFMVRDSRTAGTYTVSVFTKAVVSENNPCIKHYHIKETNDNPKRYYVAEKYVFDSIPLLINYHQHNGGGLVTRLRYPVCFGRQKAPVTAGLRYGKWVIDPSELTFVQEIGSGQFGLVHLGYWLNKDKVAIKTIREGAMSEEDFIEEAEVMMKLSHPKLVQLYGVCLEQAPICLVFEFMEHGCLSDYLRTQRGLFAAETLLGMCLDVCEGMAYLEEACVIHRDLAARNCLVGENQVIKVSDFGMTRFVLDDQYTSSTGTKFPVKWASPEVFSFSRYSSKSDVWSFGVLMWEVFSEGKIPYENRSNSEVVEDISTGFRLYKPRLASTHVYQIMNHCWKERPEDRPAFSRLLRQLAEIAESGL
Procedure: as §1, §2

Compound: C=CC(=O)O[C@H]1Cc2cc3ccc(=O)oc3cc2OC1(C)C [Compound 8, (7S)-(+)-Acrylic acid, 8,8-dimethyl-2-oxo-6,7-dihydro-2H,8H-pyrano [3,2-g]chromen-7-yl ester]
- permeability (in words) [1]: excellent
- inhibitory activity against JAK3 (in words) (JAK3): low
- inhibition at 10 µM (JAK3; 10 µM, mean of two experiments): 13.2%
- inhibitory activity against ITK (in words) (ITK): weak inhibitory activity
- inhibition at 10 µM (ITK; 10 µM, mean of two experiments): 17.3%

— paper PMC7663272, “Discovery of Tricyclic Pyranochromenone as Novel Bruton’s Tyrosine Kinase Inhibitors with In Vivo Antirheumatic Activity” (International Journal of Molecular Sciences, 2020)
